Converted amounts (≈) assume the structure as drawn.
What was measured:
[1] = tested on: Mycobacterium tuberculosis; experiment: Antitubercular activity against Mycobacterium tuberculosis H37Rv by resazurin microtiter assay; assay type: functional
[2] = Toxicity in African green monkey Vero cells; assay type: cell-based; conditions: chlorocebus sabaeus
[3] = Selectivity index, ratio of CC50 for African green monkey Vero cells to MIC for Mycobacterium tuberculosis H37Rv; assay type: functional

| Structure (SMILES) | MIC [1] | CC50 [2] | Selectivity Index [3] |
| --- | --- | --- | --- |
| O=C(/C=C/c1ccc([N+](=O)[O-])o1)c1ccc(F)cc1 | 4.17 µM (≈ 1.09 µg/mL) | 463 µM | – |
| O=C(/C=C/c1ccc([N+](=O)[O-])o1)c1ccc(N2CCCCC2)cc1 | 0.19 µM (≈ 0.062 µg/mL) | 349 µM | >1800 |
| O=C(/C=C/c1ccc([N+](=O)[O-])o1)c1ccccc1 | 5.51 µM (≈ 1.34 µg/mL) | 444 µM | – |
| O=C(/C=C/c1ccc([N+](=O)[O-])s1)c1ccc(N2CCCCC2)cc1 | 15.6 µM (≈ 5.35 µg/mL) | 404 µM | – |
| O=C(/C=C/c1ccc([N+](=O)[O-])o1)c1ccc(N2CCOCC2)cc1 | 0.38 µM (≈ 0.125 µg/mL) | 387 µM | – |
| O=C(/C=C/c1ccc([N+](=O)[O-])o1)c1ccc(N2CCN(Cc3ccccc3)CC2)cc1 | > 31.7 µM | 299 µM | – |
| Cc1ccc(C(=O)/C=C/c2ccc([N+](=O)[O-])o2)cc1 | 4.35 µM (≈ 1.12 µg/mL) | 439 µM | – |
| O=C(/C=C/c1ccc([N+](=O)[O-])o1)c1ccc(OCc2ccccc2)cc1 | 3.29 µM (≈ 1.15 µg/mL) | 515 µM | – |
| O=C(/C=C/c1ccc([N+](=O)[O-])o1)c1ccc(Cl)cc1 | 4.5 µM (≈ 1.25 µg/mL) | 558 µM | – |
| O=C(/C=C/c1ccc([N+](=O)[O-])o1)c1ccc(OCc2ccc(F)cc2)cc1 | 19.8 µM (≈ 7.27 µg/mL) | 430 µM | – |
| O=C(/C=C/c1ccc([N+](=O)[O-])o1)c1cccs1 | 5.86 µM (≈ 1.46 µg/mL) | 742 µM | – |
| COc1cc(C(=O)/C=C/c2ccc([N+](=O)[O-])o2)cc(OC)c1OC | 6.06 µM (≈ 2.02 µg/mL) | 384 µM | – |
| COc1ccc(C(=O)/C=C/c2ccc([N+](=O)[O-])o2)cc1 | 3.84 µM (≈ 1.05 µg/mL) | 571 µM | – |
| O=C(/C=C/c1ccc([N+](=O)[O-])o1)c1ccc(Br)cc1 | 3.88 µM (≈ 1.25 µg/mL) | 354 µM | – |
| COc1ccc(COc2ccc(C(=O)/C=C/c3ccc([N+](=O)[O-])o3)cc2)cc1 | 1.85 µM (≈ 0.702 µg/mL) | 311 µM | – |
| O=C(/C=C/c1ccc([N+](=O)[O-])o1)c1ccc(OCc2cccc(Cl)c2)cc1 | 6.1 µM (≈ 2.34 µg/mL) | 307 µM | – |
| O=C(/C=C/c1ccc([N+](=O)[O-])o1)c1ccco1 | 8.28 µM (≈ 1.93 µg/mL) | 776 µM | – |
| CCN(CC)c1ccc(C(=O)/C=C/c2ccc([N+](=O)[O-])o2)cc1 | 0.48 µM (≈ 0.151 µg/mL) | 334 µM | – |
| O=C(/C=C/c1ccc([N+](=O)[O-])o1)c1ccc(OCc2ccc(OC(F)(F)F)cc2)cc1 | 1.66 µM (≈ 0.719 µg/mL) | 335 µM | – |
| NNC(=O)c1ccncc1 [ISONIAZID] | 1.8 µM (≈ 0.247 µg/mL) | > 500 µM | – |
| O=C(/C=C/c1ccc([N+](=O)[O-])o1)c1ccc(OCc2ccc(Cl)cc2Cl)cc1 | > 46.6 µM | 340 µM | – |
| O=C(/C=C/c1ccco1)c1ccc(F)cc1 | > 93.9 µM | 661 µM | – |
| C=C(C)COc1ccc(C(=O)/C=C/c2ccc([N+](=O)[O-])o2)cc1 | 5.59 µM (≈ 1.75 µg/mL) | 393 µM | – |
| O=C(/C=C/c1ccc([N+](=O)[O-])o1)c1cc2ccccc2oc1=O | 29.9 µM (≈ 9.32 µg/mL) | 360 µM | – |
| O=C(/C=C/c1ccc([N+](=O)[O-])o1)c1ccc(N2CCN(C/C=C/c3ccccc3)CC2)cc1 | > 32.7 µM | 343 µM | – |
| O=C(/C=C/c1ccc([N+](=O)[O-])o1)c1ccc(Cl)cc1Cl | 14.1 µM (≈ 4.41 µg/mL) | 417 µM | – |
